Laboratory results reported in ChEMBL document CHEMBL1201862, “PubChem BioAssay data set” (2004).
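Five concentrations, 48 hours, 96-well plates. The concentration for 50% growth inhibition is given as GI50.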 Active and inactive are the calls of the source. Rule as the data show it: active = GI50 up to about 1.1 µM and inactive = higher.

Columns and labels:
Test in all cases: growth of human tumour cells (NCI), 48 h
HOP-92 = system: HOP-92
ACHN = system: ACHN
RPMI-8226 = system: RPMI-8226
UO-31 = system: UO-31
A549 = system: A549
SK-MEL-2 = system: SK-MEL-2
NCI/ADR-RES = system: NCI/ADR-RES
SNB-19 = system: SNB-19
OVCAR-3 = system: OVCAR-3
MDA-MB-231 = system: MDA-MB-231
MDA-N = system: MDA-N
SF-295 = system: SF-295
PC-3 = system: PC-3
COLO 205 = system: COLO 205
NCI-H226 = system: NCI-H226
SK-MEL-28 = system: SK-MEL-28
RXF 393 = system: RXF 393
SF-268 = system: SF-268
SK-OV-3 = system: SK-OV-3
NCI-H522 = system: NCI-H522

Row | SMILES | GI50 (HOP-92) | GI50 (ACHN) | GI50 (RPMI-8226) | GI50 (UO-31) | GI50 (A549) | GI50 (SK-MEL-2) | GI50 (NCI/ADR-RES) | GI50 (SNB-19) | GI50 (OVCAR-3) | GI50 (MDA-MB-231) | GI50 (MDA-N) | GI50 (SF-295) | GI50 (PC-3) | GI50 (COLO 205) | GI50 (NCI-H226) | GI50 (SK-MEL-28) | GI50 (RXF 393) | GI50 (SF-268) | GI50 (SK-OV-3) | GI50 (NCI-H522)
1 | CCOC(=O)c1cn(-c2ccc([N+](=O)[O-])cc2)c(=S)n2c1nc1ccccc12 | 18.5 µM (inactive) | 32 µM (inactive) | 24.6 µM (inactive) | 1.83 µM (inactive) | 36.7 µM (inactive) | 17.8 µM (inactive) | 20.8 µM (inactive) | 72.6 µM (inactive) | 53.7 µM (inactive) | 30.9 µM (inactive) | 39.7 µM (inactive) | 45.6 µM (inactive) | 13.6 µM (inactive) | 23.2 µM (inactive) | 37.2 µM (inactive) | 49.9 µM (inactive) | 63.5 µM (inactive) | – | – | –
2 | O=C(OCCN=c1c2ccccc2ccc2ccccc12)c1ccc([N+](=O)[O-])cc1 | > 100 µM (inactive) | > 100 µM (inactive) | > 100 µM (inactive) | > 100 µM (inactive) | > 100 µM (inactive) | > 100 µM (inactive) | > 100 µM (inactive) | > 100 µM (inactive) | > 100 µM (inactive) | > 100 µM (inactive) | > 100 µM (inactive) | > 100 µM (inactive) | > 100 µM (inactive) | > 100 µM (inactive) | > 100 µM (inactive) | > 100 µM (inactive) | > 100 µM (inactive) | > 100 µM (inactive) | > 100 µM (inactive) | –
3 | CC(=O)OCC1OC(n2c(C)c(/N=N/c3ccc(C)cc3)c(C)c(C#N)c2=S)C(OC(C)=O)C(OC(C)=O)C1OC(C)=O (stereo not given) | 0.895 µM (active) | > 100 µM (inactive) | > 100 µM (inactive) | > 100 µM (inactive) | > 100 µM (inactive) | – | > 100 µM (inactive) | > 100 µM (inactive) | > 100 µM (inactive) | 48.6 µM (inactive) | > 100 µM (inactive) | 90.6 µM (inactive) | > 100 µM (inactive) | > 100 µM (inactive) | – | > 100 µM (inactive) | > 100 µM (inactive) | > 100 µM (inactive) | > 100 µM (inactive) | –
4 | Cc1ccccc1C(O)(c1nccn1C)c1nccn1C | > 100 µM (inactive) | > 100 µM (inactive) | – | > 100 µM (inactive) | > 100 µM (inactive) | > 100 µM (inactive) | > 100 µM (inactive) | > 100 µM (inactive) | > 100 µM (inactive) | – | > 100 µM (inactive) | > 100 µM (inactive) | > 100 µM (inactive) | > 100 µM (inactive) | > 100 µM (inactive) | > 100 µM (inactive) | > 100 µM (inactive) | > 100 µM (inactive) | > 100 µM (inactive) | > 100 µM (inactive)
5 | COc1ccc(/N=N/C(=N/NC(=O)c2ccccc2)c2ccc(N(CCC#N)CCC#N)cc2C)cc1 | – | 54.3 µM (inactive) | > 100 µM (inactive) | 52 µM (inactive) | 38.2 µM (inactive) | 88.5 µM (inactive) | > 100 µM (inactive) | 50.9 µM (inactive) | 17.7 µM (inactive) | 50.9 µM (inactive) | 4.7 µM (inactive) | 21.5 µM (inactive) | 19.1 µM (inactive) | 32.8 µM (inactive) | 43.8 µM (inactive) | – | 34.8 µM (inactive) | 58.2 µM (inactive) | 75.3 µM (inactive) | 10.7 µM (inactive)
6 | CCn1c(CCCc2nc3c(=O)n(C)c(=O)n(C)c3[nH]2)nc2c1c(=O)n(C)c(=O)n2C | – | > 100 µM (inactive) | > 100 µM (inactive) | > 100 µM (inactive) | > 100 µM (inactive) | – | > 100 µM (inactive) | > 100 µM (inactive) | > 100 µM (inactive) | > 100 µM (inactive) | > 100 µM (inactive) | > 100 µM (inactive) | > 100 µM (inactive) | 12.1 µM (inactive) | 14.8 µM (inactive) | > 100 µM (inactive) | > 100 µM (inactive) | > 100 µM (inactive) | > 100 µM (inactive) | > 100 µM (inactive)
7 | COc1cc(C2SC(=N)Nc3c2c(C)nn3C(=O)Cc2ccccc2)cc(OC)c1OC (stereo not given) | – | > 100 µM (inactive) | > 100 µM (inactive) | > 100 µM (inactive) | > 100 µM (inactive) | – | – | > 100 µM (inactive) | – | > 100 µM (inactive) | > 100 µM (inactive) | > 100 µM (inactive) | > 100 µM (inactive) | > 100 µM (inactive) | > 100 µM (inactive) | > 100 µM (inactive) | – | > 100 µM (inactive) | > 100 µM (inactive) | > 100 µM (inactive)
8 | N#CC(CCN1CCC(Nc2ccccc2)(c2nnnn2C2CCCCC2)CC1)(c1ccccc1)c1ccccc1 | – | > 100 µM (inactive) | > 100 µM (inactive) | > 100 µM (inactive) | > 100 µM (inactive) | > 100 µM (inactive) | > 100 µM (inactive) | > 100 µM (inactive) | > 100 µM (inactive) | > 100 µM (inactive) | > 100 µM (inactive) | > 100 µM (inactive) | > 100 µM (inactive) | > 100 µM (inactive) | > 100 µM (inactive) | > 100 µM (inactive) | > 100 µM (inactive) | > 100 µM (inactive) | > 100 µM (inactive) | > 100 µM (inactive)
9 | CSCC[C@H](NC(=O)[C@H](CC(C)C)NC(=O)[C@@H](Cc1ccccc1)NC(=O)CNC(=O)[C@@H](NC(=O)[C@H](C)NC(=O)[C@H](Cc1c[nH]c2ccccc12)NC(=O)[C@H](CCC(N)=O)NC(=O)[C@H](N)CC(N)=O)C(C)C)C(N)=O | > 12.5 µM (inactive) | > 12.5 µM (inactive) | > 12.5 µM (inactive) | – | > 12.5 µM (inactive) | – | > 12.5 µM (inactive) | > 12.5 µM (inactive) | > 12.5 µM (inactive) | > 12.5 µM (inactive) | > 12.5 µM (inactive) | > 12.5 µM (inactive) | > 12.5 µM (inactive) | > 12.5 µM (inactive) | > 12.5 µM (inactive) | > 12.5 µM (inactive) | > 12.5 µM (inactive) | > 12.5 µM (inactive) | > 12.5 µM (inactive) | –
10 | Cc1ccc2nc(N/N=C/c3sccc3C)cc(C)c2c1 | 35 µM (inactive) | > 100 µM (inactive) | – | > 100 µM (inactive) | 83.9 µM (inactive) | > 100 µM (inactive) | > 100 µM (inactive) | 48.2 µM (inactive) | > 100 µM (inactive) | 14.7 µM (inactive) | > 100 µM (inactive) | – | 35 µM (inactive) | > 100 µM (inactive) | > 100 µM (inactive) | > 100 µM (inactive) | 61.8 µM (inactive) | > 100 µM (inactive) | 21.1 µM (inactive) | –
11 | COC(=O)C1(Cc2ccccc2)Cc2ccccc2C1O (stereo not given) | – | > 100 µM (inactive) | > 100 µM (inactive) | 62.4 µM (inactive) | 87.5 µM (inactive) | – | > 100 µM (inactive) | – | > 100 µM (inactive) | > 100 µM (inactive) | > 100 µM (inactive) | > 100 µM (inactive) | > 100 µM (inactive) | > 100 µM (inactive) | > 100 µM (inactive) | > 100 µM (inactive) | 50.2 µM (inactive) | > 100 µM (inactive) | > 100 µM (inactive) | 56.8 µM (inactive)
12 | COc1ccc(Nc2nnc(-c3nsc4ccccc34)s2)cc1 | 9.73 µM (inactive) | 11.1 µM (inactive) | 22.9 µM (inactive) | 10.2 µM (inactive) | 27.4 µM (inactive) | 78.7 µM (inactive) | 9.71 µM (inactive) | > 53.1 µM (inactive) | 63 µM (inactive) | 6.5 µM (inactive) | 76 µM (inactive) | 10.8 µM (inactive) | > 100 µM (inactive) | 63.7 µM (inactive) | 9.46 µM (inactive) | > 100 µM (inactive) | 26.2 µM (inactive) | 33.5 µM (inactive) | 2.52 µM (inactive) | –
13 | COc1c(-c2ccc(F)cc2)oc2cc(O)cc(O)c2c1=O | 35.6 µM (inactive) | 30.7 µM (inactive) | 30.4 µM (inactive) | 16.6 µM (inactive) | 31 µM (inactive) | 23.3 µM (inactive) | 25.9 µM (inactive) | 23.9 µM (inactive) | 34.1 µM (inactive) | 20 µM (inactive) | 26.2 µM (inactive) | 26.1 µM (inactive) | 34 µM (inactive) | 20.9 µM (inactive) | – | 46.9 µM (inactive) | – | 40 µM (inactive) | 30.5 µM (inactive) | 20.5 µM (inactive)
14 | Cc1ccc(S(=O)(=O)N/N=C2\C3CC4CC(C3)C2C4)cc1 (stereo not given) | – | – | > 100 µM (inactive) | > 100 µM (inactive) | > 100 µM (inactive) | > 100 µM (inactive) | > 100 µM (inactive) | > 100 µM (inactive) | > 100 µM (inactive) | > 100 µM (inactive) | > 100 µM (inactive) | > 100 µM (inactive) | > 100 µM (inactive) | > 100 µM (inactive) | > 100 µM (inactive) | > 100 µM (inactive) | > 100 µM (inactive) | – | > 100 µM (inactive) | > 100 µM (inactive)
15 | O=C(CNc1c(Cl)cccc1Cl)NC1C=Cc2ccc(S(=O)(=O)Nc3c(Cl)cccc3Cl)cc2C1=O (stereo not given) | 18.5 µM (inactive) | > 100 µM (inactive) | > 100 µM (inactive) | 26.9 µM (inactive) | > 100 µM (inactive) | 56.8 µM (inactive) | > 100 µM (inactive) | > 100 µM (inactive) | 42.5 µM (inactive) | 51.3 µM (inactive) | > 100 µM (inactive) | 70.8 µM (inactive) | 23.7 µM (inactive) | > 100 µM (inactive) | 17.5 µM (inactive) | > 100 µM (inactive) | – | 48.3 µM (inactive) | > 100 µM (inactive) | 30.5 µM (inactive)
